Consider 22 molecules from ChEMBL document CHEMBL5244245, “Medicinal chemistry insights into novel CDC25 inhibitors” (Eur J Med Chem, 2020).

Assay [1] in a line: Antitumor activity against human RPMI cells. The format is functional, cell-based.
For assay [2], the target named is T1, M-phase inducer phosphatase 2 (Homo sapiens, UniProt P30305).
T1 sequence (P30305 whole entry): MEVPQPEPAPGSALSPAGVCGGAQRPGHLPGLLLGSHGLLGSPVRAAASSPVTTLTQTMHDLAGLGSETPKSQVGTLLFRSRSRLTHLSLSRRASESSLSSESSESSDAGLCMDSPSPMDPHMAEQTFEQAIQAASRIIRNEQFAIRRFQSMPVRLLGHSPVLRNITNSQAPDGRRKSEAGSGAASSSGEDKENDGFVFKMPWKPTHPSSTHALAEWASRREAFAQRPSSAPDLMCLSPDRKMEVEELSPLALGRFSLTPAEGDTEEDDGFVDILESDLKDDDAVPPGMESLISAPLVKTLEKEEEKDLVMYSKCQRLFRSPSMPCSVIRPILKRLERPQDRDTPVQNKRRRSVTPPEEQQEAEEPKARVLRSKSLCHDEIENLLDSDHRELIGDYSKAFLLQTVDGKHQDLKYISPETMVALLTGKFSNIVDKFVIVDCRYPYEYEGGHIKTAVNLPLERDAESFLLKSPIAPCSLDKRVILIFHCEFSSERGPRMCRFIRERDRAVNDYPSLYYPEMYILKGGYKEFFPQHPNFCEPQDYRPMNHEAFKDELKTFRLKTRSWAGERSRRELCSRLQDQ
The assay is described as follows: Inhibition of human CDC25B.

The target of assay [3] is T2, M-phase inducer phosphatase 1 (Homo sapiens, UniProt P30304).
T2 sequence (P30304 whole entry): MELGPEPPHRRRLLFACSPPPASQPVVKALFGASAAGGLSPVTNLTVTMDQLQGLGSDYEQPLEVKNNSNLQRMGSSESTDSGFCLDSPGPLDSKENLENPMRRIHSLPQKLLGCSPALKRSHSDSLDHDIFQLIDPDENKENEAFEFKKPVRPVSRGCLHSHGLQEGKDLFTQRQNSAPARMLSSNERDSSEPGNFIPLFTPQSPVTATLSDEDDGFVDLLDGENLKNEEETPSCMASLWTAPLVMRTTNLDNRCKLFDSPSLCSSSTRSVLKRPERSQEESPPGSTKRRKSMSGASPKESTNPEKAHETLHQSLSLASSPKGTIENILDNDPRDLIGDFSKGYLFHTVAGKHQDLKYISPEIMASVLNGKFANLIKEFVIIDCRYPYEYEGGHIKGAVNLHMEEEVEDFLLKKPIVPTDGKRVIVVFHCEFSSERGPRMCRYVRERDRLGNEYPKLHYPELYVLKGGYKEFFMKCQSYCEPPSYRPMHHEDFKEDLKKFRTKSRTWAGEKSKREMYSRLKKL
The assay is described as follows: Inhibition of human CDC25A.

The target in assay [4] is T3, M-phase inducer phosphatase 3 (Homo sapiens, UniProt P30307).
T3 sequence (P30307 whole entry): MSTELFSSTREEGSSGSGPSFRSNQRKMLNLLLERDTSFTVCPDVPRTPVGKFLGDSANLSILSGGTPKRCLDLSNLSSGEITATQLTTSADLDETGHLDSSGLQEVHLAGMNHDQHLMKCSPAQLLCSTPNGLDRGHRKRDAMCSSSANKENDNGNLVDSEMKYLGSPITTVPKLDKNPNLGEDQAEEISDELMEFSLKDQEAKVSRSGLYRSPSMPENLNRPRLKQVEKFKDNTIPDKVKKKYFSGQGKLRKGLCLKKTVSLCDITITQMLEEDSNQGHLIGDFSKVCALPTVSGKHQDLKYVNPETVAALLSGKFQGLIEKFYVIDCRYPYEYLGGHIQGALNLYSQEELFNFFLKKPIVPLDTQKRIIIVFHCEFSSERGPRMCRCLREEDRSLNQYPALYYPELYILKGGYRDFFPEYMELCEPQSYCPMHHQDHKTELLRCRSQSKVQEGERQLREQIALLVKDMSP
The assay is described as follows: Inhibition of human CDC25C.

For assay [5], the target named is T3, M-phase inducer phosphatase 3. The assay is described as follows: Inhibition of CDC25C (unknown origin).
In assay [6] the target is T2, M-phase inducer phosphatase 1. Nature of the assay: Inhibition of CDC25A (unknown origin).
The target of assay [7] is T1, M-phase inducer phosphatase 2. Nature of the assay: Inhibition of CDC25B (unknown origin).
The next assay concerns HeLa. Nature of the assay: Cytotoxicity against human HeLa cells assessed as inhibition of cell growth incubated for 48 hrs by MTT assay. The format is functional, cell-based. Background: Tetrazolium dyes change colour on reduction, which living cells bring about.
The target in assay [8] is T2, M-phase inducer phosphatase 1. Nature of the assay: Inhibition of CDC25A (unknown origin) using fluorescein diphosphate as substrate.
For assay [9] the target is unchanged. Nature of the assay: Inhibition of recombinant N-terminal GST-tagged CDC25A (unknown origin) expressed in Escherichia coli BL21 (DE3) cells incubated for 2 hrs.
Assay [10] concerns the target T3, M-phase inducer phosphatase 3. The assay is described as follows: Inhibition of recombinant N-terminal GST-tagged CDC25C (unknown origin) expressed in Escherichia coli BL21 (DE3) cells incubated for 2 hrs.
Assay [11] deals with T1, M-phase inducer phosphatase 2. Nature of the assay: Inhibition of recombinant N-terminal GST-tagged CDC25B (unknown origin) expressed in Escherichia coli BL21 (DE3) cells incubated for 2 hrs.
A further assay concerns HCT-116. The assay is described as follows: Antitumor activity against human HCT-116 cells. The format is functional, cell-based.
Assay [12] addresses T1, M-phase inducer phosphatase 2. Nature of the assay: Inhibition of human recombinant CDC25B.
Assay [13] deals with T2, M-phase inducer phosphatase 1. Nature of the assay: Inhibition of recombinant CDC25A (unknown origin).
In assay [14] the target is T1, M-phase inducer phosphatase 2. The assay is described as follows: Inhibition of recombinant CDC25B (unknown origin).
Assay [15] concerns the target T3, M-phase inducer phosphatase 3. Nature of the assay: Inhibition of recombinant CDC25C (unknown origin).
Assay [16] addresses T1, M-phase inducer phosphatase 2. Nature of the assay: Inhibition of recombinant N-terminal GST-tagged CDC25B (372 to 551 residues) (unknown origin) expressed in Escherichia coli BL21 (DE3) cells incubated for 45 mins.
The target of assay [17] is T2, M-phase inducer phosphatase 1. The assay is described as follows: Inhibition of N-terminal FLAG-tagged wild type CDC25A (331 to 524 residues) (unknown origin) expressed in Escherichia coli BL21 (DE3) cells incubated for 45 mins.

The structures appear in SMILES notation.

Regarding `CCNC1=C(F)C(=O)c2c(F)c(F)c(F)c(F)c2C1=O`, the IC50 – broadly, the concentration at which inhibition is half-maximal – in [1] stood at 0.7 µM.
`O=C1C(F)=C(Nc2ccccc2)C(=O)c2c(F)c(F)c(F)c(F)c21` registered an IC50 in assay [1] of 0.8 µM.
`O=C(O)c1ccc(NC2=C(Cl)C(=O)c3ccccc3C2=O)cc1`: the IC50 in assay [2] was found to be 11.1 µM; in [3] it was 3.19 µM; in assay [4], 5.41 µM.
For the molecule `O=C(O)C1CCCCC1c1c2ccc(=O)cc-2oc2cc(O)ccc12` (stereo not drawn), the IC50 in assay [5] was 3.5 µM; in assay [6] it was 0.65 µM; in [7], 0.78 µM.
For the molecule `CCCc1cc(O)nc(SCC(=O)NCCSCc2ccco2)n1`, the concentration for half-maximal inhibition (IC50) is 66.3 µM with HeLa and 7.9 µM in assay [8].
Regarding `COc1ccc2c(CSC3=CC(=O)c4ccccc4C3=O)cc(=O)oc2c1`, the 50% inhibitory concentration (IC50) in assay [9] was found to be 4.3 µM; in [10], 0.9 µM; in assay [11], 9.1 µM.
As to `CCSC1=C(C)C(=O)c2ccccc2C1=O`, the IC50 is 5.5 µM in assay [6] and 4.7 µM in [7].
Regarding `CC(C)=CCOc1ccc(C(=O)/C=C/c2ccc(Cl)cc2)c(O)c1`, the IC50 with HCT-116 was 0.89 µM.
On to `CC(C)n1c2c(=O)c(-c3ccc(F)cc3)cc(=O)c2c2c(=O)c3ccccc3c21`, for which the IC50 in [5] was determined as 2.55 µM; in assay [6] it was 2.73 µM.
For `Cc1cc(=O)c2c(c1=O)c1c(=O)c3ccccc3c1n2C(C)C` the same measures were 2.51 µM and 2 µM.
As to `CCOC(=O)c1ccc(N2C(=O)/C(=C\c3cccc(C)c3)SC2c2ccccc2)cc1` (stereo not drawn), the IC50 in [2] worked out at 39 µM.
Consider `CCOC(=O)C1=C(C)N=c2s/c(=C\c3cc(Br)c(O)c(Br)c3)c(=O)n2C1c1ccc2c(c1)OCO2` (stereo not drawn), for which the IC50 in assay [12] was found to be 4.5 µM.
Regarding `CN(C)CCNC1=CC(=O)c2nc(-c3cc(F)ccc3F)oc2C1=O`, the half-inhibitory concentration (IC50) came out at 0.023 µM in [13], 0.053 µM in [14] and 0.023 µM in [15].
For the molecule `C[C@@H](C[C@@H](O)C(C)(C)C=O)[C@@H]1CC[C@]2(C)C3=CC[C@H]4C(C)(C)C(=O)CC[C@]4(C)[C@H]3CC[C@@]12C`, the IC50 in [7] worked out at 2.1 µM.
On to `N#Cc1c(F)cc(O)cc1SCCS(=O)(=O)O`, for which the half-maximal inhibitory concentration (IC50) in assay [16] was 1000 µM; in assay [17], 2200 µM.
Regarding `CCOC(=O)C1=C(C)N=c2s/c(=C\c3ccc(-n4cc(CNC(=O)Nc5sccc5C(=O)O)nn4)cc3)c(=O)n2C1c1ccccc1` (stereo not drawn), in [7], the concentration for half-maximal inhibition (IC50) was determined as 3 µM.
On to `CC(C)n1c2c(=O)c(-c3ccco3)cc(=O)c2c2c(=O)c3ccccc3c21`, for which the IC50 in [5] was 1.72 µM; in assay [6], 1.68 µM.
In the case of `CCCCOc1cc2c(c3c(=O)oc4ccccc4c13)C(=O)C=CC2=O`, the IC50 amounted to 9 µM in assay [5], 13.2 µM in assay [6] and 46.1 µM in assay [7].
As for `CC(C)n1c2c(=O)c(-c3ccccc3)cc(=O)c2c2c(=O)c3ccccc3c21`, the values for the IC50 in [5] and in [6] were 2 µM and 2.01 µM, respectively.
For the molecule `Cc1nc2c(s1)C(=O)C=C(NCCN(C)C)C2=O`, the IC50 amounted to 0.023 µM in assay [13], 0.053 µM in assay [14] and 0.023 µM in [15].
As to `COC1=CC(=O)C=C([S@@+]([O-])c2ccc(C)cc2)C1=O`, the half-inhibitory concentration (IC50) amounted to 6.99 µM in assay [2], 2.6 µM in [3] and 5.72 µM in [4].
Molecule `CCCCCCCCCCCC/C=C/[C@]12C(=O)O[C@]3(C)O[C@]4(C)OC(=O)C(=C[C@H]1CCCCCCCCCCCC)C4C32` (single isomer, unassigned) registered a concentration for half-maximal inhibition (IC50) in assay [7] of 6.44 µM.
